Results as given in article PMC4166935, “Toward Biophysical Probes for the 5-HT3 Receptor: Structure−Activity Relationship Study of Granisetron Derivatives” (Journal of Medicinal Chemistry, 2010).
Where two headings read alike, the source gives them in different places.

Tests used:
human 5-HT3A receptor = biological target: T1, human 5-HT3A receptor (Homo sapiens, UniProt P46098); test: [3H]granisetron competition binding, HEK293 cell membranes stably expressing h5-HT3AR
T1 construct: expressed in transfected cells; cell membranes
T1 sequence (P46098 24-478): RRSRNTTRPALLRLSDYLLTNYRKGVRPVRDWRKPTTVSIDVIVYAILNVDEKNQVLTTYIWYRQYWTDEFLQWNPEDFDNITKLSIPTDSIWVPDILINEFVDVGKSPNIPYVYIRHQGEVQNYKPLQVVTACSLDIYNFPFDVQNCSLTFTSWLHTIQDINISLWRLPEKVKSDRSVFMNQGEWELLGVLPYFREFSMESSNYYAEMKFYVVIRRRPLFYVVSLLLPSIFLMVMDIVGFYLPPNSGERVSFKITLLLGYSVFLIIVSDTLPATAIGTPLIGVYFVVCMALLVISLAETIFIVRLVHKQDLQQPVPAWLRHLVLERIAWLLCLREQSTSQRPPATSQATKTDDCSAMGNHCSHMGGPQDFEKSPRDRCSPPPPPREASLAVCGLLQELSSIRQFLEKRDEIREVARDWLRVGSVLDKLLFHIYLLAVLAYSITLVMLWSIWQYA
Method: Materials and cell culture maintenance
All cell culture reagents were obtained from Gibco BRL (Paisley, UK), except foetal calf serum which was from Labtech International (Ringmer, UK). [3H]granisetron (63.5 Ci/mmol) was from PerkinElmer (Boston, Massachusetts, USA).
Human embryonic kidney (HEK)-293 cells were maintained on 90 mm tissue culture plates at 37°C and 7% CO2 in a humidified atmosphere. Cells were cultured in DMEM:F12 (Dulbecco’s modified Eagle medium/nutrient mix F12 (1:1)) with GlutaMAX™ I containing 10% foetal calf serum and passaged when 90% confluent.
Receptor expression and radioligand binding
HEK-293 cells stably expressing the human 5-HT3A subunit (accession number: P46098) were scraped into 1 mL of ice-cold HEPES buffer (10 mM, pH 7.4) and frozen at –20°C.
After thawing, they were spun at 13,000 rpm for 1 min, resuspended and 50 μg of cell […]
Competition binding (12 points) was performed on at least three separate plates of cells.
Nonspecific binding was determined using 10 μM quipazine or other competitive antagonist.
Reactions were incubated for at least 1 h at 4°C and terminated by vacuum filtration, using a Brandel cell harvester, onto GF/B filters presoaked in 0.3% polyethyleneimine. Radioactivity was determined by scintillation counting using a Beckman LS6000SC (Fullerton, CA, USA).
Competition binding data were analyzed by iterative curve fitting (GraphPad Prism v3.02, GraphPad Software, San Diego, CA, USA), according to the equation: […]
where [L] is the concentration of ligand present, BL is the binding in the presence of ligand […]
the concentration of L which gives a binding equal to (Bmax + Bmin)/2, and nH is the Hill coefficient. Ki values were calculated from IC50 values using the Cheng–Prusoff equation: […]
where Ki is the equilibrium dissociation constant for binding of the unlabelled antagonist, [L] is the concentration of radioligand and Kd is the equilibrium dissociation constant of the radioligand. Values are presented as mean ± SEM.

h5-HT3AR in HEK293 cells = biological target: T2, h5-HT3AR in HEK293 cells (Homo sapiens, UniProt P46098); test: Confocal labeling of HEK293 cells stably transfected with h5-HT3AR with fluorescent probe 16; assay type: cell-based; conditions: 10 μM quipazine with 10 nM 16 for 10 min
T2 sequence (P46098 24-478): T1 sequence (P46098 24-478)
Method: To confirm the validity of this hypothesis, we attached a BODIPY FL fluorophore at this position (Scheme 3) to create fluorescent analogue 16 (BFL-GR). […] Similar images have previously been obtained using fluorescein, rhodamine 6G, and cyanine Cy5 dyes attached via a linker at a similar position of ondansetron, another high-affinity 5-HT3AR antagonist.[30]
Figure 3 Labeling of HEK293 cells stably transfected with h5-HT3AR with 16. Cells were incubated in 10 nM 16 for 10 min with (B) or without (A) 10 μM quipazine, washed, mounted, and then observed in a confocal microscope.[31] […] Unlabeled areas are nuclei. […] Scale bar represents 20 μm.

5-HT3 receptor = tested on: 5-HT3 receptor; set-up: method as in earlier work; conditions: cited from earlier work
[1] = Ki (nM) mean ± SEM, competition with 1 nM [3H]granisetron, HEK293 cell membranes stably expressing h5-HT3AR
[2] = competition with 1 nM [3H]granisetron, HEK293 cell membranes stably expressing h5-HT3AR, read-out: Ki (nM) mean ± SEM

CN1C2CCCC1CC(NC(=O)c1nn(C)c3c(OCc4ccccc4)cccc13)C2 (stereo not drawn) [5c]
Ki (human 5-HT3A receptor; [1]): 0.23 ± 0.03 nM
affinity for 5-HT3AR compared to 1 (human 5-HT3A receptor; comparison with granisetron (1)): equal or exceed the affinity measured for 1

CN1C2CCCC1CC(NC(=O)c1nn(C)c3cc(OCc4ccccc4)ccc13)C2 (stereo not drawn) [4c]
Ki (human 5-HT3A receptor; [2]): 749 ± 183 nM

COc1cccc2c1c(C(=O)NC1CC3CCCC(C1)N3C)nn2C (stereo not drawn) [2b]
Ki (human 5-HT3A receptor): 26.3 ± 7.4 nM

COc1cccc2c(C(=O)NC3CC4CCCC(C3)N4C)nn(C)c12 (stereo not drawn) [5b]
Ki (human 5-HT3A receptor): 71.1 ± 8 nM

CN1C2CCCC1CC(NC(=O)c1nn(C)c3ccc(OCc4ccccc4)cc13)C2 (stereo not drawn) [3c]
Ki (human 5-HT3A receptor; [2]): 3030 ± 956 nM

c1ccc2nc(N3CCNCC3)ccc2c1 [Quipazine, quipazine]
displacement of 16 from its binding sites (h5-HT3AR in HEK293 cells): has displaced 16 from its binding sites

CN1C2CCCC1CC(NC(=O)c1nn(C)c3cccc(OCc4ccccc4)c13)C2 (stereo not drawn) [2c]
Ki (human 5-HT3A receptor; [1]): 375 ± 61 nM

CN1C2CCCC1CC(NC(=O)c1nn(C)c3c(O)cccc13)C2 (stereo not drawn) [5a]
potency compared to granisetron (5-HT3 receptor): as potent as granisetron
